Experimental data published in patent US4910302A, “Psychotropic polycyclic imides” (American Home Products Corporation, priority 1988, dated 1990).

Tests used:
[1] = target: T1, dopamine D-2 receptor (Rattus norvegicus, UniProt P61169); assay: dopamine D-2 receptor binding, displacement of 3H-spiroperidol, homogenized limbic brain tissue
T1 construct: from tissue; host or cells: homogenized limbic brain tissue
Procedure: High affinity for the dopamine D-2 receptor was established by the standard experimental test procedure of Fields et al., Brain Res., 136 578 (1977) and Yamamura et al., eds., Neurotransmitter Receptor Binding, Raven Press, N.Y. (1978) wherein homogenized limbic brain tissue is incubated with ^3 H-spiroperidol and various concentrations of test compound, filtered and washed and shaken with Hydrofluor scintillation cocktail (National Diagnostics) and counted in a Packard 460 CD scintillation counter.

[2] = target: T2, serotonin 5-HT1A receptor (Rattus norvegicus, UniProt P19327); assay: serotonin 5-HT1A receptor binding, displacement of [3H] 8-OHDPAT; set-up: following the procedure of Hall et al., J. Neurochem; 44 1685 (1985); from tissue; details: for inhibition at 0.1 µM: as marked beside the value
T2 sequence (P19327 1-422): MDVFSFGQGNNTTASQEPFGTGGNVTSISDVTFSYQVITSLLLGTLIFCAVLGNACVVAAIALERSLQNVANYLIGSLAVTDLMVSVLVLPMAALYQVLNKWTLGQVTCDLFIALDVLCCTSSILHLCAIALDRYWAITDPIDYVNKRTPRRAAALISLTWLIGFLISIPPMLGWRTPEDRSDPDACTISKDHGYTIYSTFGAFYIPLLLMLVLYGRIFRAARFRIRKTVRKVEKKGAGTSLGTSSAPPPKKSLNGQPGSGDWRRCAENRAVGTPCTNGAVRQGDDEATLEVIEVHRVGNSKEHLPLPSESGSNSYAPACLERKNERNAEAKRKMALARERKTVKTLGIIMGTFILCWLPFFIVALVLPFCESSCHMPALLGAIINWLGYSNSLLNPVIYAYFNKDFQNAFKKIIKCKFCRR
Description: High affinity for the serotonin 5-HT1A receptor was established by testing the claimed compounds ability to displace [^3 H] 8-OHDPAT (dipropylaminotetralin) from the 5HT1A serotonin receptor following the procedure of Hall et al., J. Neurochem. 44 1685 (1985). […] The anxiolytic activity of buspirone is believed to be, at least partially, due to its 5-HT1A receptor affinity (Vander Maclen et al., Eur. J. Pharmacol. 1986, 129 (1-2) […].

[3] = system: 5-HT1A receptor; details: cited from earlier work
[4] = target: T2, serotonin 5-HT1A receptor; details: in words; standard for anxiolytic activity; cited from earlier work

T1 sequence (P61169 whole entry): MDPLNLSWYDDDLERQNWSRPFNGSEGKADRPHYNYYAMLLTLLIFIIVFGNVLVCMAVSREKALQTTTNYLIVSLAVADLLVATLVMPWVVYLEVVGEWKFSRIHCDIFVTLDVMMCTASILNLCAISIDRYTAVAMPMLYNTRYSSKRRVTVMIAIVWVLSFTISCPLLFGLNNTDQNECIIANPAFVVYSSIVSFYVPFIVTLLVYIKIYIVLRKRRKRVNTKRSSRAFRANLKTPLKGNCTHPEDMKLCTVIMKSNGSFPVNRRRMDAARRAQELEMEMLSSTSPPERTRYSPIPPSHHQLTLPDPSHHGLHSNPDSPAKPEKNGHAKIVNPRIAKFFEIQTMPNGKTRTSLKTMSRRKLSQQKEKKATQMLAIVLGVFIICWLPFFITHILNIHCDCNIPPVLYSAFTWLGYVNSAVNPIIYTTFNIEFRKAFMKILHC

| inhibition at 1 µM [1] [%] | inhibition at 1 µM ([2]; at 1 μM) [%] | Compound | other results |
| --- | --- | --- | --- |
| 89 | – | O=C1C2CC(C(=O)N1CCNCC1COc3ccccc3O1)C1C2C2C3CC4C2C4C31 (stereo not shown) [Example 8, Decahydro-3-[2-[(2,3-dihydro-1,4-benzodioxan-2-ylmethyl)amino]ethyl]-1,5-methano-6,7,9-metheno-2H-pentaleno[1,2d]azepine-2,4(3H)-dione] | inhibition at 0.1 µM [2]: 100% |
| 54 | – | O=C1C2C3C=CC(C4C=CC43)C2C(=O)N1CCNCC1COc2ccccc2O1 (stereo not shown) [Example 7, 2-[2-[(2,3-Dihydro-1,4-benzodioxan-2-ylmethyl)amino]ethyl]hexahydro-4,7-etheno-1H-cyclobut[f]isoindole-1,3-(2H)-dione] | inhibition at 0.1 µM [2]: 92% |
| 61 | – | CC1(C)[C@@H]2CC[C@@]1(C)C(=O)N(CCNCC1COc3ccccc3O1)C2=O (stereo partly shown) [Example 6] | inhibition at 0.1 µM [2]: 52% |
| 100 | 100 | O=C1C2C3C=CC(C4C=CC43)C2C(=O)N1CCCCNCC1COc2ccccc2O1 (stereo not shown) [Example 4, 2-[4-[(2,3-Dihydro-1,4-benzodioxan-2-ylmethyl)amino]butyl]hexahydro-4,7-etheno-1H-cyclobut[f]isoindole-1,3-(2H)-dione] | – |
| 100 | 100 | O=C1C2C3C=CC(C4CC34)C2C(=O)N1CCCCNCC1COc2ccccc2O1 (stereo not shown) [Example 5] | – |

Continued, molecule first:

| Compound | inhibition at 1 µM [1] [%] | inhibition at 1 µM ([2]; at 1 μM) [%] | other results |
| --- | --- | --- | --- |
| O=C1C2C(C(=O)N1CCCCNCC1COc3ccccc3O1)C1C3CC4C(C32)C41 (stereo not drawn) [Example 2, Endo-2-[4-[(2,3-dihydro-1,4-benzodioxan-2-ylmethyl)amino]butyl]octahydro-4,5,7-metheno-1H-pentaleno[1,2-c]pyrrole-1,3(2H)-dione] | 100 | 96 | – |
| O=C1CC2(CCCC2)CC(=O)N1CCCCNCC1COc2ccccc2O1 (single isomer, unassigned) [-(MDL) 72832] | – | – | binding at the 5-HT1A receptor site relative to the dextro rotatory isomer ([3]; ratio to dextro rotatory isomer): 32 times |
| O=C1CC2(CCCC2)CC(=O)N1CCCCN1CCN(c2ncccn2)CC1 [buspirone] | – | – | affinity for the 5-HT1A serotonin receptor subtype [4]: potent affinity |
| O=C1C2C(C(=O)N1CCCCNCC1COc3ccccc3O1)C1C3CC4C(C32)C41 (stereo not drawn) [Example 3, Exo-2-[4-[(2,3-dihydro-1,4-benzodioxan-2-ylmethyl)amino]butyl]octahydro-4,5,7-metheno-1H-pentaleno[1,2c]pyrrole-1,3(2H)-dione] | – | – | D-2 Binding (% Inhibition at 1 μM) ([1]; at 1 μM): 100%; 5-HT1A Binding (% Inhibition at 1 μM) ([2]; at 1 μM): 94% |
| O=C1C2CC(C(=O)N1CCCCNCC1COc3ccccc3O1)C1C2C2C3CC4C2C4C31 (stereo not shown) [Example 1, Decahydro-3-[4-[(2,3-dihydro-1,4-benzodioxan-2-ylmethyl)amino]butyl]-1,5-methano-6,7,9-metheno-2H-pentaleno[1,2-d]azepine-2,4(3H)-dione] | 100 | 96 | – |
| O=C1CC2(CCCC2)CC(=O)N1CCCCNCC1COc2ccccc2O1 (stereo not shown) [MDL 72832, 8-[4-(1,4-benzodioxan-2-ylmethylamino)butyl]-8-azaspiro[4.5]decane-7,9-dione] | – | – | 5-HT1A receptor ligand character ([3]; in words): selective and stereospecific |
